Measurements reported in patent US12655116B2, “Substituted isophthalic acid diamides” (Bayer Aktiengesellschaft, priority 2020, dated 2026).

Experiments:
ABUTH [1] = experiment: Pre-emergence herbicidal action against ABUTH; assay type: in vivo, Abutilon theophrasti; conditions: Abutilon theophrasti, 504 h
How it was run: (§1)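 Greenhouse pots of sandy loam held seeds covered with soil, onto which the compound was applied before emergence. An aqueous suspension or emulsion of WP or EC was used at 600 to 800 l/ha with 0.2% wetting agent. Percent damage was judged visually at 3 weeks.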

STEME [2] = experiment: Post-emergence herbicidal action against STEME; assay type: in vivo, Stellaria media; conditions: Stellaria media, 504 h
How it was run: (§2)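 A WP or EC formulation diluted in water with 0.2% wetting agent was sprayed at 600 to 800 l/ha onto one-leaf-stage plants grown in sandy loam. About 3 weeks later, action was rated visually in percent, 100% being dead plants.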

AVEFA [3] = experiment: Pre-emergence herbicidal action against AVEFA; assay type: in vivo, Avena fatua; conditions: Avena fatua, 504 h, pre-emergence
How it was run: as §1

STEME [4] = experiment: Pre-emergence herbicidal action against STEME; assay type: in vivo, Stellaria media; conditions: Stellaria media, 504 h
How it was run: as §1

AMARE [5] = experiment: Pre-emergence herbicidal action against AMARE; assay type: in vivo, Amaranthus retroflexus; conditions: Amaranthus retroflexus, 504 h, scored visually after 3 weeks vs untreated controls, 100% = plants have died, 0% = like control plants
How it was run: as §1

POLCO [6] = experiment: Pre-emergence herbicidal action against POLCO; assay type: in vivo, Polygonum convolvulus; conditions: Fallopia convolvulus, 504 h, dosage 80 g/ha
How it was run: as §1

ECHCG [7] = experiment: Post-emergence herbicidal action against ECHCG; assay type: in vivo, Echinochloa crus-galli; conditions: Echinochloa crus-galli, 504 h, dosage 20 g/ha
How it was run: as §2

DIGSA [8] = experiment: Post-emergence herbicidal action against DIGSA; assay type: in vivo, Digitaria sanguinalis; conditions: Digitaria sanguinalis, 504 h
How it was run: as §2

ECHCG [9] = experiment: Pre-emergence herbicidal action against ECHCG; assay type: in vivo, Echinochloa crus-galli; conditions: Echinochloa crus-galli, 504 h, 80 g/ha
How it was run: as §1

PHBPU = experiment: Post-emergence herbicidal action against PHBPU; assay type: in vivo, Pharbitis purpurea; conditions: Ipomoea purpurea, 504 h, dosage 20 g/ha
How it was run: as §2

VERPE [10] = experiment: Post-emergence herbicidal action against VERPE; assay type: in vivo, Veronica persica; conditions: Veronica persica, 504 h
How it was run: as §2

SETVI [11] = experiment: Post-emergence herbicidal action against SETVI; assay type: in vivo, Setaria viridis; conditions: Setaria viridis, 504 h
How it was run: as §2

VIOTR [12] = experiment: Pre-emergence herbicidal action against VIOTR; assay type: in vivo, Viola tricolor; conditions: Viola tricolor, 504 h
How it was run: as §1

VIOTR [13] = experiment: Post-emergence herbicidal action against VIOTR; assay type: in vivo, Viola tricolor; conditions: Viola tricolor, 504 h
How it was run: as §2

AVEFA [14] = experiment: Post-emergence herbicidal action against AVEFA; assay type: in vivo, Avena fatua; conditions: Avena fatua, 504 h, 20 g/ha, visual assessment about 3 weeks after treatment, 100% = plants have died, 0% = like control plants
How it was run: as §2

DIGSA [15] = experiment: Pre-emergence herbicidal action against DIGSA; assay type: in vivo, Digitaria sanguinalis; conditions: Digitaria sanguinalis, 504 h
How it was run: as §1

ABUTH [16] = experiment: Post-emergence herbicidal action against ABUTH; assay type: in vivo, Abutilon theophrasti; conditions: Abutilon theophrasti, 504 h, visual assessment about 3 weeks after treatment vs untreated controls
How it was run: as §2

ALOMY [17] = experiment: Post-emergence herbicidal action against ALOMY; assay type: in vivo, Alopecurus myosuroides; conditions: Alopecurus myosuroides, 504 h, dosage 20 g/ha, visual assessment about 3 weeks after treatment vs untreated controls
How it was run: as §2

AMARE [18] = experiment: Post-emergence herbicidal action against AMARE; assay type: in vivo, Amaranthus retroflexus; conditions: Amaranthus retroflexus, 504 h, 20 g/ha, visual assessment about 3 weeks after treatment, 100% = plants have died, 0% = like control plants
How it was run: as §2

MATIN [19] = experiment: Pre-emergence herbicidal action against MATIN; assay type: in vivo, Matricaria inodora; conditions: Tripleurospermum inodorum, 504 h
How it was run: as §1

LOLRI = experiment: Pre-emergence herbicidal action against LOLRI; assay type: in vivo, Lolium rigidum; conditions: Lolium rigidum, 504 h, 80 g/ha
How it was run: as §1

MATIN [20] = experiment: Post-emergence herbicidal action against MATIN; assay type: in vivo, Matricaria inodora; conditions: Tripleurospermum inodorum, 504 h, dosage 20 g/ha
How it was run: as §2

HORMU = experiment: Pre-emergence herbicidal action against HORMU; assay type: in vivo, Hordeum murinum; conditions: Hordeum murinum, 504 h; 80 g/ha, pre-emergence
How it was run: as §1

ALOMY [21] = experiment: Pre-emergence herbicidal action against ALOMY; assay type: in vivo, Alopecurus myosuroides; conditions: Alopecurus myosuroides, 504 h, pre-emergence
How it was run: as §1

SETVI [22] = experiment: Pre-emergence herbicidal action against SETVI; assay type: in vivo, Setaria viridis; conditions: Setaria viridis, 504 h
How it was run: as §1

VERPE [23] = experiment: Pre-emergence herbicidal action against VERPE; assay type: in vivo, Veronica persica; conditions: Veronica persica, 504 h, dosage 80 g/ha
How it was run: as §1

POLCO [24] = experiment: Post-emergence herbicidal action against POLCO; assay type: in vivo, Polygonum convolvulus; conditions: Fallopia convolvulus, 504 h, dosage 20 g/ha
How it was run: as §2

[25] = 80 g/ha, scored visually after 3 weeks vs untreated controls (100% = plants have died, 0% = like control plants)
[26] = 20 g/ha, scored visually after 3 weeks, 100% = plants have died, 0% = like control plants

Cn1nnnc1NC(=O)c1ccc(C(F)F)c(C(=O)NC2CC2)c1Cl [Example 1-149]
90%: pest or weed control at 20 g/ha (STEME [2]; 20 g/ha) | pest or weed control at 5 g/ha (STEME [2]; dosage 5 g/ha) | pest or weed control at 20 g/ha (STEME [4]; dosage 20 g/ha) | pest or weed control at 20 g/ha (PHBPU) | pest or weed control at 80 g/ha (LOLRI) | pest or weed control at 80 g/ha (HORMU) | pest or weed control at 80 g/ha (ALOMY [21]; [25]) | pest or weed control at 20 g/ha (SETVI [22]; dosage 20 g/ha)
100%: pest or weed control at 80 g/ha (ABUTH [1]; [25]) | pest or weed control at 20 g/ha (ABUTH [1]; dosage 20 g/ha, scored visually after 3 weeks vs untreated controls, 100% = plants have died, 0% = like control plants, read-out: Pre-emergence action against ABUTH (herbicidal activity in percent)) | pest or weed control at 80 g/ha (AVEFA [3]; 80 g/ha) | pest or weed control at 80 g/ha (STEME [4]; dosage 80 g/ha) | pest or weed control at 20 g/ha (AMARE [5]; 20 g/ha) | pest or weed control at 80 g/ha (AMARE [5]; 80 g/ha) | pest or weed control at 5 g/ha (DIGSA [8]; 5 g/ha) | pest or weed control at 20 g/ha (DIGSA [8]; 20 g/ha) | pest or weed control at 80 g/ha (ECHCG [9]) | pest or weed control at 20 g/ha (VERPE [10]; 20 g/ha) | pest or weed control at 5 g/ha (SETVI [11]; dosage 5 g/ha) | pest or weed control at 20 g/ha (SETVI [11]; dosage 20 g/ha) | pest or weed control at 20 g/ha (VIOTR [12]; dosage 20 g/ha) | pest or weed control at 80 g/ha (VIOTR [12]; dosage 80 g/ha) | pest or weed control at 5 g/ha (VIOTR [13]; 5 g/ha) | pest or weed control at 20 g/ha (VIOTR [13]; 20 g/ha) | pest or weed control at 20 g/ha (AVEFA [14]) | pest or weed control at 20 g/ha (DIGSA [15]; dosage 20 g/ha) | pest or weed control at 80 g/ha (DIGSA [15]; dosage 80 g/ha) | pest or weed control at 20 g/ha (ABUTH [16]; dosage 20 g/ha) | pest or weed control at 20 g/ha (AMARE [18]) | pest or weed control at 20 g/ha (MATIN [19]; dosage 20 g/ha) | pest or weed control at 80 g/ha (MATIN [19]; dosage 80 g/ha) | pest or weed control at 20 g/ha (MATIN [20]) | pest or weed control at 80 g/ha (SETVI [22]; dosage 80 g/ha) | pest or weed control at 80 g/ha (VERPE [23]) | pest or weed control at 20 g/ha (POLCO [24])
80%: pest or weed control at 20 g/ha (AVEFA [3]; [26]) | pest or weed control at 80 g/ha (POLCO [6]) | pest or weed control at 20 g/ha (ECHCG [7]) | pest or weed control at 5 g/ha (VERPE [10]; 5 g/ha) | pest or weed control at 5 g/ha (ABUTH [16]; dosage 5 g/ha) | pest or weed control at 20 g/ha (ALOMY [17]) | pest or weed control at 20 g/ha (ALOMY [21]; [26])
